From paper PMC2744866 (Journal of medicinal chemistry, 2009)
Entries after “also recorded” stand apart in the source; their conditions may differ.

How the values were obtained:
human recombinant BHMT [1] = molecular target: T1, human recombinant BHMT (Homo sapiens, UniProt Q93088); experiment: BHMT inhibition assay; assay type: biochemical; conditions: for inhibition of BHMT, in words: qualitative statement; for % Inhibition (average of triplicates): 20 μM inhibitor, 0.25 mM betaine, 0.1 mM DL-homocysteine, pH 7.5, 37 °C
T1 sequence (Q93088 1-406): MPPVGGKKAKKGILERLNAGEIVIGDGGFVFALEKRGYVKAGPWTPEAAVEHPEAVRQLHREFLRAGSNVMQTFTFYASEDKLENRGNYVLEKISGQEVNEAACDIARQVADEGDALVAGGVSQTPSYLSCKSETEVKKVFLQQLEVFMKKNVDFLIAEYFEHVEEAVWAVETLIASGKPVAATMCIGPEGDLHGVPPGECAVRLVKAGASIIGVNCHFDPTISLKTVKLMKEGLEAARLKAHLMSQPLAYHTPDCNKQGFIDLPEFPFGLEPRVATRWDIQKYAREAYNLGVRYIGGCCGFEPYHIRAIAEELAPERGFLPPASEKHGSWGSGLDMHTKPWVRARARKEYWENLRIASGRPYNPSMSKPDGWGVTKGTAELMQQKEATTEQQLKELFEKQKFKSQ

[2] = 1H and 13C NMR pH titration; assay type: physicochemical; conditions: NMR titration over broad pH range
human recombinant BHMT [3] = molecular target: T1, human recombinant BHMT; experiment: Isothermal titration calorimetry of inhibitor binding to BHMT; conditions: ITC
[4] = pH 7.5, read-out: % Inhibition (average of triplicates)

inhibition of BHMT, in words (human recombinant BHMT [1])	Structure (SMILES)	also measured
very weak inhibitor	NC(CCSSCCCC(=O)O)C(=O)O (racemic) [Compound 5, (RS)-2-Amino-4-[(3-carboxypropyl)disulfanyl]butanoic acid]	–
–	NC(CCSCCNCC(=O)O)C(=O)O (racemic) [Compound 16, (RS)-2-Amino-4-[2-(carboxymethylamino)ethylthio]butanoic Acid]	pK2 of secondary/tertiary amino group [2]: ~9.5
moderate inhibitory potency	NC(CCSCSCCC(=O)O)C(=O)O (racemic) [Compound 6, (RS)-2-Amino-4-[(2-carboxyethylthio)methylthio]butanoic Acid]	–
almost inactive	NC(CCCCCCCC(=O)O)C(=O)O (racemic) [Compound 10, (RS)-2-Aminodecanedioic Acid]	–
–	C[N+](C)(CCSCCC(N)C(=O)O)CC(=O)[O-] (racemic) [Compound 12, (RS)-2-{[2-(3-Amino-3-carboxypropylthio)ethyl]dimethylammonium}acetate]	% Inhibition (average of triplicates) (human recombinant BHMT [1]): very weak inhibition
–	NC(CCSCCCCC(=O)O)C(=O)O (stereo not shown) [Compound 1, reference compound]	inhibition at 1 µM (human recombinant BHMT [1]; [4]): 97.6%; inhibition at 20 µM (human recombinant BHMT [1]; [4]): 100%
low inhibitory potency	NC(CCCSCCCC(=O)O)C(=O)O (racemic) [Compound 7, (RS)-2-Amino-5-(3-carboxypropylthio)pentanoic Acid]	–
almost inactive	NC(CCOCCCCC(=O)O)C(=O)O (racemic) [Compound 8, (RS)-5-(3-Amino-3-carboxypropoxy)pentanoic Acid]	–
–	C[N+](C)(CSCCC(N)C(=O)O)CC(=O)[O-] (racemic) [Compound 11, (RS)-2-{[(3-Amino-3-carboxypropylthio)methyl]dimethylammonium}acetate]	% Inhibition (average of triplicates) (human recombinant BHMT [1]): completely inactive
only a modest inhibitor	CN(CCCSCCC(N)C(=O)O)CC(=O)O (racemic) [Compound 19, (RS)-2-Amino-4-{3-[(carboxymethyl)(methyl)amino]propylthio}butanoic Acid]	–
did not inhibit BHMT at all	C[N+](C)(CCCSCCC(N)C(=O)O)CC(=O)[O-] (racemic) [Compound 18, (RS)-2-{[3-(3-Amino-3-carboxypropylthio)propyl]dimethylammonio}acetate]	–

Structure (SMILES)	inhibition of BHMT, in words (human recombinant BHMT [1])	also measured
CN(CCSCCC(N)C(=O)O)CC(=O)O (racemic) [Compound 13, (RS)-2-Amino-4-{2-[(carboxymethyl)(methyl)amino]ethylthio}-butanoic Acid]	promising, but still moderate, inhibition	pK2 of secondary/tertiary amino group [2]: ~9.5
CC(C)(CCSCCC(N)C(=O)O)CC(=O)O (racemic) [Compound 21]	highly potent inhibitors	enthalpic contribution ΔH (human recombinant BHMT [3]; 25 °C, pH 7.5): -29.5 ± 1.2 kcal/mol; entropic contribution −TΔS (human recombinant BHMT [3]; 25 °C, pH 7.5): 19.6 ± 1.3 kcal/mol; association constant Ka (human recombinant BHMT [3]; 25 °C, pH 7.5, S-enantiomer): (2.0 ± 0.6) × 10^7 M^−1; stoichiometry of the main interaction (human recombinant BHMT [3]; inhibitor per BHMT monomer): 1.1 ± 0.1
C[C@@H](CCSCC[C@@H](N)C(=O)O)CC(=O)O (racemic) [Compound 20]	highly potent inhibitors; also recorded: equipotent	–
NC(CC[Se]CCCCC(=O)O)C(=O)O (racemic) [Compound 9, (RS)-5-(3-Amino-3-carboxypropylselanyl)pentanoic Acid]	strongly inhibited	fold weaker than compound 1 (human recombinant BHMT [1]; compared with reference inhibitor 1): 5 fold
